What was measured:
Format in all cases: in vivo
[1] = test system: ducksalad (Heteranthera limosa); assay: Test B flooded paddy test; conditions: Flood, 0 to 100 scale where 0 is no effect and 100 is complete control, 13 to 15 d
In short: (§1)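 Flooding to 3 cm over soil accompanied treatment, which consisted of adding compound to the standing water around 2-leaf plants; depth was then maintained. Visual assessment versus controls followed at 13 to 15 d (scale 0–100, 0 meaning no effect).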

[2] = test system: barnyardgrass (Echinochloa crus-galli); assay: Test B flooded paddy test; conditions: Flood, 0 to 100 scale where 0 is no effect and 100 is complete control, 13 to 15 d
In short: as §1

[3] = test system: sedge, umbrella (small-flower umbrella sedge, Cyperus difformis); assay: Test B flooded paddy test; conditions: Flood, 0 to 100 scale where 0 is no effect and 100 is complete control, 13 to 15 d
In short: as §1

rice (Oryra sativa) = assay: Test B flooded paddy test; conditions: Flood, 0 to 100 scale where 0 is no effect and 100 is complete control, 13 to 15 d
In short: as §1

[4] = test system: morningglory (Ipomoea spp.); assay: Test A postemergence
In short: (§2)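 Compounds were formulated in a non-phytotoxic solvent mixture with surfactant and applied as a preemergence directed soil spray after seeding, or sprayed postemergence over plants 2 to 10 cm tall at the one- to two-leaf stage. Evaluation after about 10 d compared treated with untreated controls, using a scale from 0 (no effect) to 100 (complete control).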

[5] = test system: pigweed (Amaranthus retroflexus); assay: Test A postemergence
In short: as §2

corn (Zea mays) [6] = assay: Test A postemergence
In short: as §2

[7] = test system: giant foxtail (Setaria faberii); assay: Test A postemergence
In short: as §2

[8] = test system: barnyardgrass (Echinochloa crus-galli); assay: Test A postemergence
In short: as §2

[9] = test system: crabgrass, large (Digitaria sanguinalis); assay: Test A postemergence
In short: as §2

[10] = test system: wheat (Triticum aestivum); assay: Test A postemergence
In short: as §2

[11] = test system: velvetleaf (Abutilon theophrasti); assay: Test A postemergence
In short: as §2

[12] = test system: morningglory (Ipomoea spp.); assay: Test A preemergence; conditions: for Plant response rating, Morningglory: 125 g ai/ha, preemergence, 0 to 100 scale (0 no effect, 100 complete control); for Morningglory plant response rating (0 to 100 scale): Preemergence, 0 is no effect, 100 is complete control
In short: as §2

[13] = test system: pigweed (Amaranthus retroflexus); assay: Test A preemergence; conditions: for Plant response rating, Pigweed: 125 g ai/ha, preemergence, 0 to 100 scale (0 no effect, 100 complete control); for Pigweed plant response rating (0 to 100 scale): Preemergence, 0 is no effect, 100 is complete control
corn (Zea mays) [14] = assay: Test A preemergence; conditions: for Plant response rating, Corn: 125 g ai/ha, preemergence, 0 to 100 scale (0 no effect, 100 complete control); for Corn plant response rating (0 to 100 scale): Preemergence, 0 is no effect, 100 is complete control
In short: as §2

[15] = test system: giant foxtail (Setaria faberii); assay: Test A preemergence; conditions: for Plant response rating, Foxtail, Giant: 125 g ai/ha, preemergence, 0 to 100 scale (0 no effect, 100 complete control); for Foxtail, Giant plant response rating (0 to 100 scale): Preemergence, 0 is no effect, 100 is complete control
In short: as §2

[16] = test system: barnyardgrass (Echinochloa crus-galli); assay: Test A preemergence; conditions: for Plant response rating, Barnyardgrass: 125 g ai/ha, preemergence, 0 to 100 scale (0 no effect, 100 complete control); for Barnyardgrass plant response rating (0 to 100 scale): Preemergence, 0 is no effect, 100 is complete control
In short: as §2

[17] = test system: crabgrass, large (Digitaria sanguinalis); assay: Test A preemergence; conditions: for Plant response rating, Crabgrass, Large: 125 g ai/ha, preemergence, 0 to 100 scale (0 no effect, 100 complete control); for Crabgrass, Large plant response rating (0 to 100 scale): Preemergence, 0 is no effect, 100 is complete control
In short: as §2

[18] = test system: wheat (Triticum aestivum); assay: Test A preemergence; conditions: for Plant response rating, Wheat: 125 g ai/ha, preemergence, 0 to 100 scale (0 no effect, 100 complete control); for Wheat plant response rating (0 to 100 scale): Preemergence, 0 is no effect, 100 is complete control
In short: as §2

[19] = test system: velvetleaf (Abutilon theophrasti); assay: Test A preemergence; conditions: for Plant response rating, Velvetleaf: 125 g ai/ha, preemergence, 0 to 100 scale (0 no effect, 100 complete control); for Velvetleaf plant response rating (0 to 100 scale): Preemergence, 0 is no effect, 100 is complete control
In short: as §2

[20] = 500 g ai/ha, postemergence, 0 to 100 scale, 0 no effect, 100 complete control
[21] = Postemergence, 125 g ai/ha, visual injury, 0 to 100 scale (0 no effect, 100 complete control), approx. 10 d
[22] = 1000 g ai/ha, postemergence, 0 to 100 scale, 0 no effect, 100 complete control

O=C1NCC(c2ccc(-c3ccccc3)cc2)C1C(=O)Nc1cccc(F)c1F (racemic) [Compound 366]
0: Plant response rating, Ducksalad ([1]; 1000 g ai/ha) | Plant response rating, Barnyardgrass ([2]; 1000 g ai/ha) | Plant response rating, Sedge, Umbrella ([3]; 1000 g ai/ha) | Plant response rating, Rice (rice (Oryra sativa); 1000 g ai/ha) | Plant response rating, Morningglory [4, 20] | Plant response rating, Morningglory [4, 21] | Plant response rating, Pigweed [5, 20] | Plant response rating, Pigweed [5, 21] | Plant response rating, Corn (corn (Zea mays) [6]; [20]) | Plant response rating, Corn (corn (Zea mays) [6]; [21]) | Plant response rating, Foxtail, Giant [7, 20] | Plant response rating, Foxtail, Giant [7, 21] | Plant response rating, Barnyardgrass [8, 20] | Plant response rating, Barnyardgrass [8, 21] | Plant response rating, Crabgrass, Large [9, 20] | Plant response rating, Crabgrass, Large [9, 21] | Plant response rating, Wheat [10, 20] | Plant response rating, Wheat [10, 21] | Plant response rating, Velvetleaf [11, 20] | Plant response rating, Velvetleaf [11, 21] | Plant response rating, Morningglory [12] | Morningglory plant response rating (0 to 100 scale) ([12]; 500 g ai/ha) | Plant response rating, Pigweed [13] | Pigweed plant response rating (0 to 100 scale) ([13]; 500 g ai/ha) | Plant response rating, Corn (corn (Zea mays) [14]) | Corn plant response rating (0 to 100 scale) (corn (Zea mays) [14]; 500 g ai/ha) | Plant response rating, Foxtail, Giant [15] | Foxtail, Giant plant response rating (0 to 100 scale) ([15]; 500 g ai/ha) | Plant response rating, Barnyardgrass [16] | Barnyardgrass plant response rating (0 to 100 scale) ([16]; 500 g ai/ha) | Plant response rating, Crabgrass, Large [17] | Crabgrass, Large plant response rating (0 to 100 scale) ([17]; 500 g ai/ha) | Plant response rating, Wheat [18] | Wheat plant response rating (0 to 100 scale) ([18]; 500 g ai/ha) | Plant response rating, Velvetleaf [19] | Velvetleaf plant response rating (0 to 100 scale) ([19]; 500 g ai/ha)

Nc1cccc(C2CNC(=O)C2C(=O)Nc2cccc(F)c2F)c1 (stereo not shown) [Compound 354]
0: Plant response rating, Ducksalad ([1]; 250 g ai/ha) | Plant response rating, Barnyardgrass ([2]; 250 g ai/ha) | Plant response rating, Morningglory [4, 20] | Plant response rating, Morningglory [4, 21] | Plant response rating, Pigweed [5, 20] | Plant response rating, Pigweed [5, 21] | Plant response rating, Corn (corn (Zea mays) [6]; [20]) | Plant response rating, Corn (corn (Zea mays) [6]; [21]) | Plant response rating, Foxtail, Giant [7, 20] | Plant response rating, Foxtail, Giant [7, 21] | Plant response rating, Barnyardgrass [8, 20] | Plant response rating, Barnyardgrass [8, 21] | Plant response rating, Crabgrass, Large [9, 20] | Plant response rating, Crabgrass, Large [9, 21] | Plant response rating, Wheat [10, 20] | Plant response rating, Wheat [10, 21] | Plant response rating, Velvetleaf [11, 20] | Plant response rating, Velvetleaf [11, 21] | Plant response rating, Morningglory [12] | Morningglory plant response rating (0 to 100 scale) ([12]; 500 g ai/ha) | Plant response rating, Pigweed [13] | Pigweed plant response rating (0 to 100 scale) ([13]; 500 g ai/ha) | Plant response rating, Corn (corn (Zea mays) [14]) | Corn plant response rating (0 to 100 scale) (corn (Zea mays) [14]; 500 g ai/ha) | Plant response rating, Foxtail, Giant [15] | Foxtail, Giant plant response rating (0 to 100 scale) ([15]; 500 g ai/ha) | Plant response rating, Barnyardgrass [16] | Barnyardgrass plant response rating (0 to 100 scale) ([16]; 500 g ai/ha) | Plant response rating, Crabgrass, Large [17] | Crabgrass, Large plant response rating (0 to 100 scale) ([17]; 500 g ai/ha) | Plant response rating, Wheat [18] | Wheat plant response rating (0 to 100 scale) ([18]; 500 g ai/ha) | Plant response rating, Velvetleaf [19] | Velvetleaf plant response rating (0 to 100 scale) ([19]; 500 g ai/ha)
20: Plant response rating, Sedge, Umbrella ([3]; 250 g ai/ha) | Plant response rating, Rice (rice (Oryra sativa); 250 g ai/ha)

N#CCN(C(=O)C1C(=O)NCC1c1ccc(F)c(F)c1)c1ccccc1[N+](=O)[O-] (stereo not shown) [Compound 713]
80: Crabgrass, Large plant response rating (0 to 100 scale) ([17]; 1000 g ai/ha)
0: Plant response rating, Morningglory [4, 22] | Plant response rating, Pigweed [5, 22] | Plant response rating, Corn (corn (Zea mays) [6]; [22]) | Plant response rating, Foxtail, Giant [7, 22] | Plant response rating, Barnyardgrass [8, 22] | Plant response rating, Crabgrass, Large [9, 22] | Plant response rating, Wheat [10, 22] | Plant response rating, Velvetleaf [11, 22] | Morningglory plant response rating (0 to 100 scale) ([12]; 1000 g ai/ha) | Pigweed plant response rating (0 to 100 scale) ([13]; 1000 g ai/ha) | Corn plant response rating (0 to 100 scale) (corn (Zea mays) [14]; 1000 g ai/ha) | Barnyardgrass plant response rating (0 to 100 scale) ([16]; 1000 g ai/ha) | Wheat plant response rating (0 to 100 scale) ([18]; 1000 g ai/ha) | Velvetleaf plant response rating (0 to 100 scale) ([19]; 1000 g ai/ha)
40: Foxtail, Giant plant response rating (0 to 100 scale) ([15]; 1000 g ai/ha)

Source: patent US12077503B2, “Substituted cyclic amides and their use as herbicides” (FMC CORPORATION, priority 2015, dated 2024)
